One series relates to parathyroid hormone. The series is described as follows: Secondary hyperparathyroidism in the 7/8 nephrectomy rat renal insufficiency model (serum PTH, serum calcium). The arrangement: Final Ca Levels (mg/ml): unit not given here. As to conditions: for Final Ca Levels (mg/ml) / PTH pg/ml T=1-T=0: 7 days, 7/8 nephrectomized rats, serum. In kind it is in vivo, Female Sprague Dawley rats. From the text: • Compound of Formula Ia • 1,25(OH)2 vitamin D3 (control) • Vehicle - Miglyol 812
Female Sprague Dawley rats were anesthesized, their right kidney removed and 2-3 branches of the left renal artery were ligated to achieve 7/8 nephrectomy. They were placed on a high phosphorous diet (0.6% Ca and 0.8 phosphorous). Approximately 3-6 weeks after surgery, rats were bled to screen serum PTH levels and rats with PTH levels between 100-500 pg/ml were selected for the study.
There was a pre-bleed (T=0) and each group was dosed daily for seven days by oral gavage with either the compound of Formula Ia (10, 1 or 0.1 µg/kg/day), vehicle control or […] positive control. Compounds were predissolved in ethanol and diluted with vehicle (Miglyol 812) followed by evaporation of the ethanol.
After the last day of dosing, the animals were bled again (T=1) and sacrificed. Serum PTH assays were done with Nichols Institute Diagnostic Kit #40-2240. Serum calcium assays were done with Sigma Diagnostic Kit #587 with o-cresophthalein. Serum creatinine assays were done with Sigma Diagnostic Kit #1600-320 with ammonium molybdate.

Another series deals with MCF-7 cells. The series can be described thus: Cell proliferation assay in MCF-7 breast cancer cells (MTT). As to conditions: for IC50: MCF-7 cells, 7 days of culture, MTT. Type of series: cell-based, human. The method, then:
MCF-7 cells are human mammary carcinoma cells that are positive for estrogen receptors. The potential activity of vitamin D3 analogs against breast cancer was assessed from inhibition of proliferation of MCF-7 cells in culture.
MCF-7 cells were plated at 5000 cells/well in 96-well plates and incubated at 37°C in 5% CO2/95% air in Dulbecco's Modified Eagle Medium containing 10% fetal bovine serum 700 nM insulin, 2 mM glutamine, 0.1 mM MEM non-essential amino acids and 1 mM sodium pyruvate. Stock solutions of vitamin D3 analogs were prepared at a concentration of 10 mM in absolute ethanol and stored at -20°C under argon. One day after plating, MCF-7 cells were refed with either control medium or medium containing varying concentrations of the vitamin D3 analog.
For each vitamin D3 analog, the IC50 value was determined from a graph relating the optical density at 570 nm to the concentration used. The IC50 value was defined as the concentration of the vitamin D3 analog corresponding to half-maximal reduction in 570 nm absorbance.

In a further series the test system is ZR-75 cells. The series is described as follows: Cell proliferation assay in ZR-75 breast cancer cells (MTT). In kind it is cell-based, human. As to conditions: for IC50: ZR-75 cells, 10 days of culture, MTT. On the procedure: ZR-75 cells are human mammary carcinoma cells that are positive for estrogen receptors. The potential activity of vitamin D3 analogs against breast cancer was assessed from inhibition of proliferation of ZR-75 cells in culture.
ZR-75 cells were plated at 12,500 cells/well in 24-well plates and incubated at 37°C in 5% CO2/95% air in RPMI medium containing 10% fetal bovine serum and 2 mM glutamine. Stock solutions of vitamin D3 analogs were prepared at a concentration of 10 mM in absolute ethanol and stored at -20°C under argon. One day after plating, ZR-75 cells were refed with either control medium or medium containing varying concentrations of the vitamin D3 analog.
The IC50 value was defined as the concentration of the vitamin D3 analog corresponding to half-maximal reduction in 570 nm absorbance.

The test system of series [1] is postmenopausal osteoporosis. As to conditions: 0.25 microgram twice daily, after 3 years, mild to moderate disease, versus elemental calcium 1000 mg/day; cited from earlier work.

Broadly, the IC50 is the midpoint of a concentration-inhibition curve. As to “(1α,3β,5Z,7E)-21-(3-hydroxy-3-methylbutyl)-9,10-Secocholesta-5,7,10, (19)-triene-1,3,25-triol [Formula Ia]”, the “Final Ca Levels (mg/ml)” value in the series with parathyroid hormone (0.1 µg/kg/day po) stood at 10.20; in the series on parathyroid hormone (1 µg/kg/day po), 10.35; with parathyroid hormone (10 µg/kg/day po), 11.97. Also, the “PTH pg/ml T=1-T=0” value with parathyroid hormone (0.1 µg/kg/day po) is 112 pg/mL; in the series on parathyroid hormone (1 µg/kg/day po) it was -124 pg/mL; in the series on parathyroid hormone (10 µg/kg/day po) it was -132 pg/mL. In the series on parathyroid hormone (compared with 1,25(OH)2 vit. D3, summary in words), the “suppressing the elevated levels of parathyroid hormone” value was “more effective than 1,25(OH)2 vit. D3”. In addition, the elevated calcium levels entry in the series on parathyroid hormone (summary in words) is listed as “without causing elevated calcium levels”. The IC50 in the series on MCF-7 cells came out at 0.8 nM; in the series with ZR-75 cells it was 0.3 nM. Further, the “potency relative to 1,25-dihydroxy-cholecalciferol in inhibition of MCF-7 breast cells growth” value with MCF-7 cells (ratio of IC50 values) is “approximately 50 times”. The “potency relative to 1,25-dihydroxy-cholecalciferol in inhibition of ZR-75 breast cells growth” value in the series on ZR-75 cells (ratio of IC50 values) is given as “more than 40 times”.

Take `C=C1/C(=C\C=C2/CCC[C@]3(C)[C@@H]([C@H](C)CCCC(C)(C)O)CC[C@@H]23)C[C@@H](O)C[C@@H]1O` [1,25(OH)2 vit. D3, 1,25-dihydroxyvitamin D3, reference compound]: in the series with parathyroid hormone (0.1 µg/kg/day po), the “PTH pg/ml T=1-T=0” value is -66 pg/mL. Further, the 50% inhibitory concentration (IC50) was 40 nM in the series on MCF-7 cells (Homo sapiens, MCF7, 168 h) and 13 nM with ZR-75 cells (Homo sapiens, ZR75, 240 h). In series [1], the “lower rate of new vertebral fractures” value is 3 fold.
